The values below come from patent US11634458B2, “Peptides and compositions for use in cosmetics and medicine” (LIPOTRUE, S.L., priority 2018, dated 2023).

The test system of assay [1] is permeabilized chromaffin cells. The following applies: Blanes-Mira et al. 2002; cited from earlier work.
Assay [2] relates to SH-SY5Y cells. Kind of assay: Exocytosis levels and delay (fluorescent exocytosis reporter). It is filed as cell-based, human. The settings on record: 1 mg/mL, 1 hour, PMA + ionomycin, vs non-treated cells. How it is done:
The potential of said peptide Ac-SEQ ID NO: 8-NH2 to modulate the exocytosis of vesicles containing neurotransmitters from a neuroblastoma cell line was evaluated in vitro using SH-SY5Y cells, by fluorescence imaging using a Zeiss axiovert 200 inverted epifluorescence microscope with a 20× objective and a Xenon lamp.
SH-SY5Y cells (Sigma, USA) were cultured in T25 flasks in supplemented medium (DMEM/F12, Gibco, USA). Above 90% confluence, cells were trypsinized with 1 ml of 0.5% (v/v) Trypsin-EDTA. Next, 5 mL of said supplemented medium was added and cell concentration determined. Cells were seeded onto polyLysine-coated 12 mm-treated coverslips in 24 well-plates at 15×10^4 cells/well in supplemented medium (Gibco, USA) and incubated at regular conditions (37° C., 5% CO2). After 24 h cell seeding, cells were transfected with exocytosis reporter using Lipofectamine™ 3000 (Invitrogen, USA) following manufacturer's instructions. Reporter construct contained fusion protein made up of intraluminal-specific proteins and a pH-sensitive fluorescent protein.
For exocytosis monitorization, after 48 h of protein expression, cells were incubated with 0.01 mg/mL of Ac-SEQ ID NO: 8-NH2 peptide or 1 mg/mL of the benchmark acetyl hexapeptide-8 for 1 h at 37° C. and 5% CO2. Non-treated cells were used as basal control. […] Fluorescence imaging was done for the last 10 min of the stimulation protocol. Fluorescence signal of exocytosis reporter was monitored employing 483-512 nm excitation-filter and 525-530 nm emission-filter. […]
Non-treated cells were assayed in N=4 independent experiments with n=16 coverslips (483 cells measured), acetyl hexapeptide-8-treated cells in N=3 independent experiments with n=10 coverslips (328 cells measured) and Ac-SEQ ID NO: 8-NH2-treated cells in N=3 independent experiments with n=8 coverslips (240 cells measured). Cells were selected to individually monitor fluorescence intensity and time-course. Fluorescence peak evoked by ionomycin addition was used to quantify exocytosis by calculating the Area under the curve (AUC) using GraphPad software. Two parameters were defined and analyzed: • Exocytosis levels: For individual cells, total peak area was obtained from AUC analysis and was normalized by the baseline that was defined as fluorescence intensity 3-cycles before lonomycin injection. • Exocytosis delay: For individual cells, response time (min) was obtained from AUC analysis as time frame between lonomycin injection (Y) and initiation of peak (firstX).
Fluorescence values were further normalized as percentage change to non-treated cells on each experiment as: (exocytosis level of treated cells/exocytosis levels non-treated cells)×100 and (response time of treated cells/response time of non-treated cells)×100. […]

Assay [3] concerns human muscle cells and motor neurons derived from hiPSC co-cultures. Kind of assay: Contraction frequency in human muscle cell / hiPSC motor neuron co-cultures. It is filed as cell-based. The following applies: 0.5 mg/mL. The protocol: The potential of said peptide Ac-SEQ ID NO: 8-NH2 to modulate the contraction frequency was evaluated in vitro using human muscle cells and motor neurons derived from hiPSC co-cultures, by means of live-imaging video of localized contractile muscle fibers recorded with an InCell 2200 automated microscope during 60 seconds, before and after treatment (after treatment, at each of the established timepoints).
Human muscle cells were cultivated at a density of 1×10^6 cells in T75 cm^2 flasks and then transferred to 96 well plates for differentiation. Motor neurons derived from hiPSC were transferred onto the 96 well plates containing the muscle cells in a differentiation medium. Co-cultures were maintained for 10 days in order to generate neurons junctions with muscle fibers. Spontaneous contractions were observed within 5 days.
Co-cultures were then treated with control medium (basal), 1 μM α-bungarotoxin, 0.5 mg/mL of acetyl hexapeptide-8 as a benchmark reference and 0.05 or 0.1 mg/mL of peptide Ac-SEQ ID NO: 8-NH2. Movies of co-cultures were recorded during 60 seconds before treatment and, after 30 minutes of incubation, movies were recorded again during 60 seconds. The culture plate was incubated again for 1 h 30 min with compounds (2 h of total incubation), and movies of co-cultures were recorded again during 60 seconds. The culture plate was incubated again for a total of 24 h with compounds and at the end of the incubation movies were recorded again during 60 seconds. Finally, compounds were washed out and a last recording after 24 h from said washed out of the compounds was done to assess an eventual recovery of muscle contractions (recovery).
Frequencies of contraction were calculated before and after each incubation. For each culture condition, 6 wells were analyzed.

Take “acetyl hexapeptide-8 [reference compound]”: in assay [1], the “inhibition of exocytosis, maximum values” was 40%. The “change of exocytosis level” value in assay [2] was determined as 7%. Besides, in assay [2], the “exocytosis response time delay” value was determined as 67%. Moreover, the “muscle contraction frequency with regard to the basal non-treated cells” value in assay [3] (after 30 min) was 18%; in assay [3] (after 24 h) it was 45%; in assay [3] (after washout), 100%.
